Some test systems named below: MALME-3M melanoma; KM12 colon; ACHN renal; HOP-62 NSCLC; HCT-15 colon; SN12C renal; SNB-75 CNS; HL-60(TB) leukemia; RXF 393 renal.
Experiment in all cases: growth of human tumour cells (NCI), 48 h

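A five-concentration, 48-hour dose response in 96-well plates underlies each endpoint, interpolated linearly between surrounding concentrations. TGI: concentration producing complete growth inhibition.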

Consider `COc1ccc2c(c1)CC1c3c(cc4c(c3-2)OCO4)CCN1C` (centres undefined), for which the TGI with MALME-3M melanoma was 83.3 µM; in the test with KM12 colon it was above 100 µM; with ACHN renal, 36.1 µM; with HOP-62 NSCLC, 96.7 µM; with HCT-15 colon, above 100 µM; with SN12C renal it was above 100 µM. For the same compound, in the test with SNB-75 CNS, the TGI was 56.9 µM.

As to `COc1cc(/C=C2/C(=O)NC(Cc3cc(OC)c(OC)c(C)c3OC)C(=O)N2Cc2ccccc2)c(OC)c(C)c1OC` (centres undefined), the TGI in the test with MALME-3M melanoma was above 100 µM; in the test on HL-60(TB) leukemia, 53.3 µM; in the test with RXF 393 renal, above 100 µM; in the test on KM12 colon, above 100 µM; in the test with ACHN renal it was above 100 µM; with HOP-62 NSCLC, above 100 µM. Moreover, the TGI with SN12C renal and in the test on SNB-75 CNS was above 100 µM throughout.

As to `C/C(=C\CC[C@]1(C)OC(C)(C)OC1CC/C(C)=C/CO[Si](c1ccccc1)(c1ccccc1)C(C)(C)C)CC/C=C/CO[Si](C)(C)C(C)(C)C` (some centres undefined), the TGI with MALME-3M melanoma, in the test with HL-60(TB) leukemia, in the test on RXF 393 renal, in the test with KM12 colon, in the test on ACHN renal and in the test on HOP-62 NSCLC was above 100 µM each time. Further, the TGI with HCT-15 colon, in the test on SN12C renal and in the test with SNB-75 CNS was above 100 µM each time.

`Cc1ccc(C2=C(c3ccccc3)C(Br)(c3ccccc3)C(c3ccccc3)=C2c2ccc(C)cc2)cc1`: the TGI with MALME-3M melanoma, in the test with HL-60(TB) leukemia, in the test on RXF 393 renal, in the test with KM12 colon, in the test with ACHN renal and in the test on HOP-62 NSCLC was above 100 µM throughout. Besides, the TGI with HCT-15 colon, in the test with SN12C renal and in the test on SNB-75 CNS was above 100 µM throughout.

As to `O=C1CCCC1NC(=O)C(F)(F)F` (centres undefined), the TGI in the test with MALME-3M melanoma, in the test with HL-60(TB) leukemia, with RXF 393 renal, in the test on KM12 colon, in the test on ACHN renal and in the test on HOP-62 NSCLC was above 100 µM each time. The TGI with SN12C renal and with SNB-75 CNS was above 100 µM each time.

On to `COc1ccccc1/C=N/N=C(\N)NO`, for which the TGI is above 100 µM in the test on MALME-3M melanoma; above 100 µM with RXF 393 renal; above 100 µM in the test on KM12 colon; above 100 µM with ACHN renal; 76.6 µM in the test with HOP-62 NSCLC; above 100 µM in the test on HCT-15 colon. The TGI in the test on SN12C renal was above 100 µM.

Take `Cc1cccc2c1C/C(=C1\CCc3c(C)cccc31)C2=O`: the TGI with MALME-3M melanoma, in the test with HL-60(TB) leukemia, in the test with RXF 393 renal, with KM12 colon, in the test on ACHN renal and with HOP-62 NSCLC was above 100 µM each time. The TGI in the test on HCT-15 colon, in the test on SN12C renal and with SNB-75 CNS was above 100 µM each time.

Consider `Cn1c(=O)c(C(=O)NC(=O)OCc2ccccc2)cn(CCSCCOC(=O)NCCCCCCNC(=O)OCCSCCn2cc(C(=O)NC(=O)OCc3ccccc3)c(=O)n(C)c2=O)c1=O`, for which the TGI in the test on MALME-3M melanoma, in the test with HL-60(TB) leukemia, in the test with RXF 393 renal, in the test with ACHN renal, in the test on HOP-62 NSCLC and with HCT-15 colon was above 100 µM each time. In addition, the TGI in the test on SN12C renal was above 100 µM; with SNB-75 CNS it was 48.9 µM.

In the case of `O=C(N/C(=C\c1ccc(Oc2ccc(Cl)c(Cl)c2)cc1)c1nc2ccccc2[nH]1)c1ccccc1`, the TGI in the test on MALME-3M melanoma came out at 43.8 µM; in the test with RXF 393 renal, 28.1 µM; in the test with KM12 colon, 30.4 µM; in the test with ACHN renal, 50.9 µM; in the test on HCT-15 colon, 66.6 µM; in the test with SN12C renal it was 35.5 µM.

For the compound `CC1=Nn2c(nnc2-c2ccc(N)cc2)NC(C)(C)C1`, the TGI in the test on MALME-3M melanoma, in the test on HL-60(TB) leukemia, with KM12 colon, in the test on ACHN renal, in the test on HOP-62 NSCLC and with HCT-15 colon was above 100 µM in each case.

Consider `CC(=O)c1c[nH]cc1CO`, for which the TGI in the test on MALME-3M melanoma, with HL-60(TB) leukemia, in the test on RXF 393 renal, in the test on KM12 colon, in the test with ACHN renal and with HOP-62 NSCLC was above 10 µM each time. Also, the TGI in the test on HCT-15 colon, with SN12C renal and in the test on SNB-75 CNS was above 10 µM in each case.

In the case of `CC1(C)C2C/C(=C\c3ccccc3)C(=O)C1C2` (centres undefined), the TGI in the test with MALME-3M melanoma, with HL-60(TB) leukemia, with RXF 393 renal, with KM12 colon, in the test on ACHN renal and in the test with HOP-62 NSCLC was above 100 µM each time. Besides, the TGI with HCT-15 colon is above 100 µM; with SN12C renal, above 100 µM; with SNB-75 CNS it was 97.5 µM.

Regarding `CC12CC3CC(C1)CC(N=[N+]=[N-])(C3)C2`, the TGI with MALME-3M melanoma, in the test with KM12 colon, in the test with ACHN renal, with HOP-62 NSCLC, in the test on SN12C renal and in the test with SNB-75 CNS was above 100 µM each time.

`Cc1ccc(/C=C2\CCCC\C2=N\O)cc1`: the TGI was 30.7 µM in the test on HL-60(TB) leukemia; above 100 µM in the test with ACHN renal; above 100 µM with HOP-62 NSCLC; above 100 µM in the test on HCT-15 colon; above 100 µM with SN12C renal; 81.3 µM in the test on SNB-75 CNS.

Turning to `[C-]#[N+]C(C)(C)C[C@H]1CC(C)C2CCC(C)C3([N+]#[C-])CCC(=C)C1[C@H]23` (some centres undefined), the TGI in the test with MALME-3M melanoma was 25.3 µM; in the test on HL-60(TB) leukemia, 12.6 µM; with RXF 393 renal it was 10.5 µM; with KM12 colon, 11.8 µM; with ACHN renal, 6.58 µM; with HOP-62 NSCLC, 19.3 µM. The TGI worked out at 8.85 µM in the test with SN12C renal and 49.7 µM with SNB-75 CNS.

Take `Clc1ccc(SCCCCCCCCCCSc2ccc(Cl)cc2)cc1`: the TGI in the test on MALME-3M melanoma is above 70.3 µM; in the test with HL-60(TB) leukemia, above 100 µM; with RXF 393 renal, above 100 µM; in the test with KM12 colon it was above 70.4 µM; with ACHN renal, above 73.5 µM; in the test with HOP-62 NSCLC it was above 100 µM. Also, the results for the TGI in the test on HCT-15 colon, in the test on SN12C renal and in the test on SNB-75 CNS were above 75.9 µM, above 100 µM and above 100 µM, respectively.

For the origin of these results see PubChem BioAssay (NCI).
